The values that follow are results of earlier work, collected in patent publication US20250121046A1, “MRNA THERAPEUTIC COMPOSITIONS” (Nutcracker Therapeutics, Inc., priority 2022, published 2025).

Data set [1] concerns cervical cancer whose tumors express PD-L1 (CPS≥1). The note with it: single agent, disease progression on or after chemotherapy, KEYNOTE-158; cited from earlier work.
For data set [2] the test system is unchanged. The note with it: in combination with chemotherapy, with or without bevacizumab; cited from earlier work.

Regarding pembrolizumab [KEYTRUDA], the objective response entry in data set [1] was “around 14%”. Further, the overall survival entry in data set [2] was “improvements”.
